According to publication PMC5370276, “Induction of Osteopontin by Dengue Virus-3 Infection in THP-1 Cells: Inhibition of the Synthesis by Brefelamide and Its Derivative” (Frontiers in Microbiology, 2017):

Experiments:
[1] = system: DENV-infected THP-1 cells; assay: Toxicity to DENV-infected THP-1 cells; assay type: cell-based, human; conditions: dose-dependent
Procedure: (§1) THP-1 and 293T cells were seeded in a Nunc cell culture tube and a 12-well cell culture plate, respectively, at 1.8 × 10^5/well. After overnight incubation, cells were washed and incubated with fresh medium containing DENV-3 at an MOI of 0.1 or incubated without virus for 1.5 h. The inoculum was then removed and cells were washed twice with fresh medium, and compounds A and B were added at final concentrations of 3, 10, and 30 μM. […] On day 3 post-infection, culture supernatants and cell lysates were collected. Cell viability was evaluated by Trypan Blue exclusion and DENV copy number was determined by RT-qPCR. OPN mRNA and protein levels were quantified by RT-qPCR and ELISA, respectively.

OPN mRNA in 293T cells = assay: OPN mRNA expression by RT-qPCR in uninfected and DENV-3-infected 293T cells; assay type: cell-based, human; conditions: uninfected 293T cells, 3-30 μM, 72 h
THP-1 cells = assay: Cytotoxicity, CellTiter 96 Aqueous (MTS) cell proliferation assay; assay type: cell-based, human; conditions: 24 h incubation
Procedure: (§2) Brefelamide, henceforth referred to as compound A ([Kikuchi et al., 2005]), is an aromatic amide isolated from methanol extracts of Dictyostelium brefeldianum and D. giganteum slime mold fruiting bodies; its derivative, henceforth referred to as compound B ([Kikuchi et al., 2005]; [Zhang et al., 2016b]), contains a methyl ether group (-OCH3). Both compounds were dissolved in dimethyl sulfoxide (DMSO) at a concentration of 50 mM and stored at -20°C. Aliquots of the stock solutions were further diluted with appropriate growth medium to the desired concentrations before use. […] THP-1 and 293T cells were seeded in 96-well tissue culture plates at a density of 1.8 × 10^4/well in 90 μl of the appropriate growth medium and incubated for 24 h at 37°C in a humidified 5% CO2 atmosphere. The following day, 10 μl of compounds A and B at concentrations ranging from 0.0001 to 10 mM were added to each well. […] The absorbance at 490 nm was recorded with an ELISA plate reader and the IC50 value was determined by identifying the X-axis value corresponding to one-half of the difference between the maximum and minimum absorbance values using GraphPad Prism v.6 software (GraphPad Inc., San Diego, CA, USA).

OPN mRNA in THP-1 cells = assay: OPN mRNA expression by RT-qPCR in uninfected and DENV-3-infected THP-1 cells; assay type: cell-based, human; conditions: 72 h
Description: Glyceraldehyde 3-phosphate dehydrogenase (GAPDH) was used as reference gene for normalization of expression levels and was amplified with the following forward and reverse primers: GAPDH-F, 5′-[…]-3′ and GAPDH-R, 5′-[…]-3′. The Taqman probe was as follows: 5′[FAM]–[…]–[BHQ1]3′. A forward and reverse primer set (SPP1-F, 5′-[…]-3′ and SPP1-R, 5′-[…]-3′) and a probe (SPP1-P, 5′-[FAM]–[…] GAAGT–[BHQ1]3′) (Takara Bio) were used to quantify OPN mRNA ([Qin et al., 2015]). The mean fold change in OPN mRNA level was calculated as fold difference = 2^-ΔΔCt.
(§3) Changes in OPN expression in uninfected THP-1 and 293T cell lines in response to treatment with compounds A and B were assessed. Each well in a 12-well tissue culture plate was seeded with 1.8 × 10^5 cells. After overnight incubation, the compounds were added at final concentrations of 3–100 μM. Cells were harvested 3 days later. OPN mRNA and protein levels were quantified by RT-qPCR and ELISA, respectively, to determine the optimal concentration.
THP-1 and 293T cells were seeded in a Nunc cell culture tube and a 12-well cell culture plate, respectively, at 1.8 × 10^5/well. […] Cell viability was evaluated by Trypan Blue exclusion and DENV copy number was determined by RT-qPCR. OPN mRNA and protein levels were quantified by RT-qPCR and ELISA, respectively.

DENV-infected 293T cells = assay: Toxicity to DENV-infected 293T cells; assay type: cell-based, human; conditions: dose-dependent
Procedure: as §1

[2] = system: Osteopontin (OPN) in THP-1 cells; assay: OPN protein level in culture supernatant by ELISA, THP-1 cells; assay type: cell-based, human
Procedure: (§4) Osteopontin levels in the cell culture supernatant were quantified using an ELISA kit (R&D Systems, Minneapolis, MN, USA) according to the manufacturer’s instructions and as previously reported ([Chagan-Yasutan et al., 2014]). The supernatant was diluted eightfold for THP-1 cells and two–fourfold for 293T cells, and the final value was calculated as [drawing 1] and was expressed as pg/ml/10^6 cells.
as §3, §1

astrocytoma cells = system: astrocytoma cells; parameters: method as in Kikuchi et al., 2005; Honma et al., 2009; conditions: by inhibiting ERK phosphorylation; ref Kikuchi et al., 2005; Honma et al., 2009; cited from earlier work
DENV-3 [3] = assay: DENV RNA copy number by RT-qPCR in infected THP-1 cells; assay type: cell-based, Dengue virus-3; conditions: 72 h
Procedure: (§5) Viral copy number in culture supernatants and cell lysates was measured by RT-qPCR as previously described ([Chagan-Yasutan et al., 2013]) using the RNA UltraSense One-Step Quantitative RT-PCR System (Invitrogen, Carlsbad, CA, USA) and Thermal Cycler Dice Real Time System (Takara Bio, Otsu, Japan) according to the manufacturers’ protocols. Primers and hydrolysis probes specific to the 3′ untranslated region of each of the four DENV genotypes have been previously published ([Chagan-Yasutan et al., 2013]). The forward and reverse primers were as follows 5′-[…]-3′ and 5′-[…]-3′ ([Warrilow et al., 2002]). The TaqMan probe was labeled at the 5′ and 3′ ends with a 6-carboxyfluorescein (FAM) reporter and Black Hole quencher (BHQ)-1 (i.e., 5′[FAM]–[…]–[BHQ1]3′). The copy numbers obtained by DENV RT-qPCR were linearly associated with plaque numbers (data not shown).
as §1

293T cells = assay: Cytotoxicity, CellTiter 96 Aqueous (MTS) cell proliferation assay; assay type: cell-based, human; conditions: 24 h incubation
Procedure: Both compounds were dissolved in dimethyl sulfoxide (DMSO) at a concentration of 50 mM and stored at -20°C. Aliquots of the stock solutions were further diluted with appropriate growth medium to the desired concentrations before use. […] The following day, 10 μl of compounds A and B at concentrations ranging from 0.0001 to 10 mM were added to each well. After incubation for 24 h, 20 μl per well of 3-(4,5-dimethyl-2-yl)-5-(3-carboxymethoxyphenyl)-2-(4-sulfophenyl)-2H-tetrazolium salt/phenazine methosulfate solution was added to each well, followed by incubation for 4 h. The absorbance at 490 nm was recorded with an ELISA plate reader and the IC50 value was determined by identifying the X-axis value corresponding to one-half of the difference between the maximum and minimum absorbance values using GraphPad Prism v.6 software (GraphPad Inc., San Diego, CA, USA).

[4] = system: Osteopontin (OPN) in 293T cells; assay: OPN protein level in culture supernatant by ELISA, 293T cells; assay type: cell-based, human
Procedure: as §4, §3
as §1, with “The inoculum was then removed and cells were washed twice with fresh medium, and compounds A and B were added at final concentrations of 3, 10, and 30 μM.” left out

[5] = Cytotoxicity, CellTiter 96 Aqueous (MTS) cell proliferation assay; assay type: cell-based, human; conditions: human, THP-1 cells, 24 h incubation
Procedure: as §2

DENV-3 [6] = assay: DENV RNA copy number by RT-qPCR in infected 293T cells; assay type: cell-based, Dengue virus-3; conditions: 0.3 μM
Procedure: as §5
THP-1 and 293T cells were seeded in a Nunc cell culture tube and a 12-well cell culture plate, respectively, at 1.8 × 10^5/well. After overnight incubation, cells were washed and incubated with fresh medium containing DENV-3 at an MOI of 0.1 or incubated without virus for 1.5 h. […] Cell viability was evaluated by Trypan Blue exclusion and DENV copy number was determined by RT-qPCR. OPN mRNA and protein levels were quantified by RT-qPCR and ELISA, respectively.

[7] = DENV-infected THP-1 cells, MOI 0.1, 3 days

SMILES | Toxic concentration [1] | OPN mRNA levels (OPN mRNA in 293T cells) | IC50 (THP-1 cells) | OPN mRNA expression (OPN mRNA in THP-1 cells; DENV-infected THP-1 cells, MOI 0.1, 3-30 μM) | OPN mRNA expression (OPN mRNA in THP-1 cells; uninfected THP-1 cells, 3-30 μM) | Toxic concentration (DENV-infected 293T cells) | OPN level in supernatant after treatment ([2]; DENV-infected THP-1 cells, 10 μM compound, 3 days, infected control 67848.9) | OPN levels in supernatant [2, 7] | OPN levels in supernatant ([2]; uninfected THP-1 cells, 3 days) | Proliferation of astrocytoma cells (astrocytoma cells) | Suppression of DENV RNA levels relative to the control (DENV-3 [3]; THP-1 cell culture supernatant, 10 μM) | Suppression of DENV RNA levels (DENV-3 [3]; THP-1 cell lysates, 10 μM) | IC50 (293T cells) | OPN expression (protein, supernatant) ([4]; DENV-infected 293T cells, MOI 0.1, 3 days) | OPN expression (protein, supernatant) ([4]; uninfected 293T cells, 3 days) | IC50 at 24 h [5] | Virus replication (DENV RNA copy number) (DENV-3 [3]; THP-1 culture supernatant, 0.3-1 μM) | Viral replication (DENV RNA) (DENV-3 [6]; 293T cell lysates) | Viral replication (DENV RNA) (DENV-3 [6]; 293T culture supernatant) | OPN production ([4]; DENV-infected 293T cells, 0.3 μM)
Nc1c(Oc2ccc(O)cc2)cccc1C(=O)CCNC(=O)c1ccc(O)cc1 [compound A, Brefelamide] | > 30 µM | reduced OPN mRNA levels | 102 µM | inhibited OPN mRNA expression in a dose-dependent manner | had no effect | > 30 µM | 12247.9 pg/ml/10^6 cells | dose-dependent reduction | had no effect | suppressed the proliferation | 75% | not lysates | 32.2 µM | did not inhibit | did not inhibit | – | – | – | – | –
CCC(C)(C)C(=O)O[C@H]1C[C@@H](C)C=C2C=C[C@H](C)[C@H](CC[C@@H]3C[C@@H](O)CC(=O)O3)[C@H]21 [simvastatin, reference compound] | – | – | – | – | – | – | – | had no effect | – | – | – | – | – | – | – | 14.1 µM | had no effect | inhibited viral replication | inhibited viral replication | suppressed OPN production
